Values quoted from earlier work in patent US20080095814A1, “Compositions Having a High Antiviral and Antibacterial Efficacy” (THE DIAL CORPORATION, priority 2004, published 2008).

Test system: rhinoviral infections
Conditions: subjects who used iodine products

For `II` [iodine], the “colds in users versus placebo users” value is listed as “significantly fewer colds than placebo users”.
